# Data taken from paper PMC6934184, “Selective DNA-PKcs inhibition extends the therapeutic index of localized radiotherapy and chemotherapy” (The Journal of Clinical Investigation, 2019).
# Target: T1, BRSK1 (SAD1) (Homo sapiens, UniProt Q8TDC3)
# T1 construct: purchased Thermo Fisher Scientific (Life Technologies) SelectScreen
# Assay: SelectScreen Z'LYTE
# Assay type: biochemical
# Method in brief: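 NU5455 was profiled across the SelectScreen Broad panel of kinase activity and binding assays. Z'LYTE reactions such as CSF1R ran at apparent Km ATP, while the Adapta CAMK1 assay used ATP listed as 10. Values are given as percent.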
# T1 sequence (Q8TDC3 whole entry): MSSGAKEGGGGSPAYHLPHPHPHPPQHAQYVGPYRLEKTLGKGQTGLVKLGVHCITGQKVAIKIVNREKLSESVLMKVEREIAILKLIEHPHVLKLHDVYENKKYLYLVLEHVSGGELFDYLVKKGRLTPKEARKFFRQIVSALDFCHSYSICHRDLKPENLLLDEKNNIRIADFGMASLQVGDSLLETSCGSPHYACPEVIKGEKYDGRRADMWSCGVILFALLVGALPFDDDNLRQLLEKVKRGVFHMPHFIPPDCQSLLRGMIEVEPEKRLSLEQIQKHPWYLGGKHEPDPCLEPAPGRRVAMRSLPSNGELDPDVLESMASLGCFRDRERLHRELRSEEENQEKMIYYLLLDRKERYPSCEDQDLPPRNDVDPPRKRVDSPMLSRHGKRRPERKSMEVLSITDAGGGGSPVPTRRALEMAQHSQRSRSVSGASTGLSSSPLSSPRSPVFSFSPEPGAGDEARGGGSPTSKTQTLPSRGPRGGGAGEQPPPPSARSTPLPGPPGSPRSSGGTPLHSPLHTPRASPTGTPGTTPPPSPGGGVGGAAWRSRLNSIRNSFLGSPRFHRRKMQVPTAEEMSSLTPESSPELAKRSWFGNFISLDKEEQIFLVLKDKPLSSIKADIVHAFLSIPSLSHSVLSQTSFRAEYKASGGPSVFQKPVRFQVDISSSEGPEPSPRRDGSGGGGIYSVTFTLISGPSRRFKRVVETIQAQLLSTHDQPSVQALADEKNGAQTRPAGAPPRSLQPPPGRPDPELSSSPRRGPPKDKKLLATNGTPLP
compound,measurement,value
CN(C(=O)CN1CCOCC1)c1ccc2sc3c(-c4cccc5c(=O)cc(N6CC7CCC(C6)O7)oc45)cccc3c2c1 [NU5455],inhibition at 1 µM,-1.1%
